One data set relates to β-amyloid 1-40. As to the kind of experiment: β-amyloid 1-40 secretion by transgenic mouse hippocampal organotypic slice culture (sandwich ELISA). Type of data set: cell-based. The settings on record: 72 h; 25 μM to 400 μM, 3-day conditioning period, FIG. 4; read-out: IC50 for β-amyloid production by transgenic mouse hippocampal organotypic slice culture. How it is done:
Preparation of cultures. Ten day old mouse pups transgenic for the 751 amino acid isoform of human β-amyloid precursor protein (β-APP),programmed for neural expression by the neuron specific enolase promoter were used as tissue source for hippocampal organotypic slice cultures. Cultures were prepared as for rat brain slice organotypic cultures described in Example 1.
Preperation of cultures. Hippocampal organotypic slice cultures were prepared as described in example 2, from 10 day old mice transgenic for the 751 amino acid isoform of human β-amyloid precursor protein (β-APP), programmed for neural expression by the neuron specific enolase promoter and maintained in culture for 10 days.
Preparation of cultures. Hippocampal organotypic slice cultures are prepared from 10 day old mice transgenic for the 751 amino acid isoform of human β-amyloid precursor protein (β-APP), programmed for neural expression by the neuron specific enolase promoter as described in Example 2, and maintained in culture for 6 weeks.
Detailed description of FIG. 4. Hippocampal organotypic slice cultures were prepared from mice transgenic for β-APP751. […] Data points shown were calculated by first taking the mean of duplicate ELISA values for each well, and then calculating the mean of the values for the duplicate treatment wells. […]

A short description of data set [1]: toxicity in transgenic mouse hippocampal organotypic slice culture by visual inspection. Type of data set: cell-based, mice transgenic for β-APP751. The settings on record: 25 μM to 400 μM, not toxic until this concentration, read-out: concentration at which toxicity became apparent by visual inspection. How it is done: Assessment of β-amyloid inhibitor activity and toxicity. Cultures are observed visually approximately every other day. Prior to the commencement of compound testing, on day 18 in culture, a three day test period was initiated in which media was conditioned by the untreated cultures. This media was collected and assayed for β-amyloid 1-40 and 1-42 levels using sensitive ELISAs. Organotypic cultures were then washed with media twice, and incubated for a further 3 day conditioning period in media supplemented with 25 μM to 400 μM MDL 28170, a protease inhibitor shown to inhibit total β-amyloid production in cell culture with an IC50 of 100 μM. MDL 28170 was applied from 100×stock solutions prepared in DMSO. Control culture received only DMSO. After conditioned media was collected at […], organotypic cultures were washed with serum free media twice and incubated for an additional 24 hours in serum free media in the continued presence of MDL 28170. This conditioned media was assayed for lactate dehydrogenase (LDH) activity. LDH is a ubiquitous cytosolic enzyme released into conditioned media only by unhealthy cells and is an index of viability and toxicity. High levels of LDH activity in serum require measurements to be made in serum free conditioned media. […]

Data set [2] in a line: toxicity in transgenic mouse hippocampal organotypic slice culture by LDH assay of serum free conditioned media. Type of data set: cell-based, mice transgenic for β-APP751. The settings on record: 25 μM to 400 μM, 3 days, then additional 24 hours in serum free media, not toxic until this concentration, read-out: concentration at which toxicity became apparent by LDH assay. How it is done:
Detailed description of FIG. 4. Hippocampal organotypic slice cultures were prepared from mice transgenic for β-APP751. On day 21 in vitro, organotypic cultures were washed with media twice, and duplicate wells were incubated for a 3-day conditioning period in media supplemented with 25 μM to 400 μM MDL 28170, a protease inhibitor shown to inhibit total β-amyloid production in cell culture with an IC50 of 100 μM. MDL 28170 was applied from 100×stock solutions prepared in DMSO. Control culture received only DMSO. Conditioned media was collected at day 24 and assayed in duplicate for β-amyloid 1-40 using a sandwich ELISA. Organotypic cultures were washed with serum free media twice and incubated for an additional 24 hours in serum free media in the continued presence of MDL 28170. This conditioned media was assayed for lactate dehydrogenase (LDH) activity. LDH is a ubiquitous cytosolic enzyme released into conditioned media only by unhealthy cells and is an index of viability and toxicity. High levels of LDH activity in serum require measurements to be made in serum free conditioned media. Data points shown were calculated by first taking the mean of duplicate ELISA values for each well, and then calculating the mean of the values for the duplicate treatment wells.
Assessment of β-amyloid inhibitor activity and toxicity. Cultures are observed visually approximately every other day. […]

The subject of data set [3] is total β-amyloid production. The settings on record: cited from earlier work.

Where a SMILES comes first, the peptide text is derived from it. The star is where a group is joined. Cbz = O=C(OCc1ccccc1)*

Consider `CC(C)[C@H](NC(=O)OCc1ccccc1)C(=O)N[C@H](C=O)Cc1ccccc1` [MDL 28170] (Cbz-Val-Phe-aldehyde), for which the concentration for half-maximal inhibition (IC50) in the data set on β-amyloid 1-40 is 100 µM; in data set [3] (cell culture (monotypic cells), previously shown, read-out: IC50 for inhibition of total β-amyloid production in cell culture) it was 100 µM. Further, the MCC in data set [1] and in data set [2] was 400 µM in each case. The “reversibility of MDL activity on cultured monotypic cells” value in data set [3] (cultured monotypic cells) is listed as “reversible”.

Source of the values: patent publication US6221670A, “Methods to identify β-amyloid reducing agents” (Scios Inc., priority 1997, dated 2001).
